Assay results: patent publication US20240158348A1, “HERBICIDAL CYCLIC AMIDES N-SUBSTITUTED WITH A HALOALKYLSULFONYLANILIDE GROUP” (FMC Corporation, priority 2021, published 2024)

Tests used:
Assay type in all cases: in vivo
[1] = system: foxtail, giant (giant foxtail, Setaria faberi); assay: Test C preemergence, giant foxtail; details: 0 is no effect, 100 is complete control
Outline: (§1)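 Ratings run from 0, meaning no effect, up to 100, meaning complete control, judged by eye against untreated plants. Treatment was a directed soil spray before emergence or a postemergence spray on 2–10 cm seedlings, with evaluation 10 or 12 days later.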

corn (Zea mays) = assay: Test C preemergence, corn; details: 0 is no effect, 100 is complete control
Outline: as §1

[2] = system: ryegrass, Italian (Italian ryegrass, Lolium multiflorum); assay: Test C postemergence, Italian ryegrass; details: for Ryegrass, Italian plant response rating: visual injury, 0 to 100 scale (0 no effect, 100 complete control); for Plant response rating (0 to 100 scale), Ryegrass, Italian: 0 is no effect, 100 is complete control
Outline: as §1

soybean (Glycine max) = assay: Test C postemergence, soybean; details: for Soybean plant response rating: visual injury, 0 to 100 scale (0 no effect, 100 complete control); for Plant response rating (0 to 100 scale), Soybean: 0 is no effect, 100 is complete control
[3] = system: pigweed, palmer (palmer amaranth, Amaranthus palmeri); assay: Test C postemergence, palmer amaranth; details: for Pigweed, Palmer plant response rating: visual injury, 0 to 100 scale (0 no effect, 100 complete control); for Plant response rating (0 to 100 scale), Pigweed, Palmer: 0 is no effect, 100 is complete control
Outline: as §1

[4] = system: goosegrass (Eleusine indica); assay: Test C postemergence, goosegrass; details: for Goosegrass plant response rating: 31 g ai/ha Postemergence, visual injury, 0 to 100 scale (0 no effect, 100 complete control); for Plant response rating (0 to 100 scale), Goosegrass: 125 g ai/ha Postemergence, 0 is no effect, 100 is complete control
Outline: as §1

kochia (Bassia scoparia) = assay: Test C postemergence, kochia; details: for Kochia plant response rating: 31 g ai/ha Postemergence, visual injury, 0 to 100 scale (0 no effect, 100 complete control); for Plant response rating (0 to 100 scale), Kochia: 125 g ai/ha Postemergence, 0 is no effect, 100 is complete control
Outline: as §1

Structure (SMILES)	Plant response rating (0 to 100 scale), Foxtail, Giant ([1]; 31 g ai/ha Preemergence)	Plant response rating (0 to 100 scale), Foxtail, Giant ([1]; 125 g ai/ha Preemergence)	Plant response rating (0 to 100 scale), Corn (corn (Zea mays); 31 g ai/ha Preemergence)	Plant response rating (0 to 100 scale), Corn (corn (Zea mays); 125 g ai/ha Preemergence)	Ryegrass, Italian plant response rating ([2]; 31 g ai/ha Postemergence)	Ryegrass, Italian plant response rating ([2]; 125 g ai/ha Postemergence)	Soybean plant response rating (soybean (Glycine max); 31 g ai/ha Postemergence)	Soybean plant response rating (soybean (Glycine max); 125 g ai/ha Postemergence)	Pigweed, Palmer plant response rating ([3]; 31 g ai/ha Postemergence)	Pigweed, Palmer plant response rating ([3]; 125 g ai/ha Postemergence)	Goosegrass plant response rating [4]	Plant response rating (0 to 100 scale), Goosegrass [4]	Kochia plant response rating (kochia (Bassia scoparia))	Plant response rating (0 to 100 scale), Kochia (kochia (Bassia scoparia))	Plant response rating (0 to 100 scale), Ryegrass, Italian ([2]; 125 g ai/ha Postemergence)	Plant response rating (0 to 100 scale), Soybean (soybean (Glycine max); 125 g ai/ha Postemergence)	Plant response rating (0 to 100 scale), Pigweed, Palmer ([3]; 125 g ai/ha Postemergence)
Cc1cc(C)c(N2CCC(OC3CC3)C2=O)cc1NS(=O)(=O)C(F)(F)F (single isomer, unassigned) [Compound 29]	90	100	80	90	70	100	60	100	60	90	90	90	60	90			
Cc1cc(C)c(N2CCC(OC3CC3)C2=O)cc1NS(=O)(=O)C(F)(F)F (single isomer, unassigned) [Compound 30]	100	100	90	90	90	100	50	60	60	90	80	90	80	90			
CO/N=C1\CCN(c2cc(NS(=O)(=O)C(F)(F)F)c(C)cc2C)C1=O [Compound 9, 1,1,1-trifluoro-N-[5-[3-(methoxyimino)-2-oxo-1-pyrrolidinyl]-2,4-dimethylphenyl]methanesulfonamide]	100	100	50	100	50		80		70		90	90	80	90	80	80	90
Cc1cc(C)c(N2CC/C(=N\O)C2=O)cc1NS(=O)(=O)C(F)(F)F [Compound 10, 1,1,1-trifluoro-N-[5-[3-(hydroxyimino)-2-oxo-1-pyrrolidinyl]-2,4-dimethylphenyl]methanesulfonamide]	90	100	30	90	80		80		60		90	90	60	90	80	80	90
C=CCO/N=C1\CCN(c2cc(NS(=O)(=O)C(F)(F)F)c(C)cc2C)C1=O [Compound 11]	100	100	50	100	0		100		40		90	100	40	90	30	100	90
C#CCO/N=C1\CCN(c2cc(NS(=O)(=O)C(F)(F)F)c(C)cc2C)C1=O [Compound 13, N-[2,4-dimethyl-5-[2-oxo-3-[(2-propyn-1-yloxy)imino]-1-pyrrolidinyl]phenyl]-1,1,1-trifluoromethanesulfonamide]	100	100	40	100	60		100		80		70	100	90	90	60	100	90
Cc1cc(C)c(N2CCC(O)C2=O)cc1NS(=O)(=O)C(F)(F)F (stereo not drawn) [Compound 14]	80	100	10	100	60		80		40		60	90	50	70	100	80	90
COC(=O)N(c1cc(N2CCC(OC3CC3)C2=O)c(C)cc1C)S(=O)(=O)C(F)(F)F (stereo not drawn) [Compound 16]	0	0	0	0	0		40		0		0	0	20	10	0	60	0
Cc1cc(C)c(N(C(=O)OC(C)C)S(=O)(=O)C(F)(F)F)cc1N1CCC(OC2CC2)C1=O (stereo not drawn) [Compound 18]	0	0	0	0	0		50		0		0	0	20	70	0	80	20
